Data: US20230218663A1, “COMPOSITIONS AND METHODS FOR TREATING A SARS-COV-2 INFECTION” (priority 2020, published 2023)
Where “and” joins values, the source holds several entries; their conditions need not be identical. Identical values can stand only once. Like-named read-outs stand apart in the source and are kept apart here.

What was measured:
[1] = Chemical stability of bismuth drugs at different pH
[2] = test system: Caco-2 cell monolayer
[3] = cited from earlier work
[4] = In vivo pharmacokinetics and biodistribution in SD rats; parameters: species or system Sprague Dawley rats
Method: For the measurement of detailed pharmacokinetics profiles of the optimal NAC combination with CBS identified from the above mice study, rats received a minor surgery of cannulation one day prior to experiment, with a polythene tube (i.d.0.4 mm×o.d. 0.8 mm, Harvard Apparatus, USA) in the left jugular vein, followed by an overnight recovery and fasting. Two group of rats (n=5 per group) were orally administrated with 1-mL aliquot of CBS (150 mg/kg) or CBS (150 mg/kg)+10NAC (610 mg/kg). About 200 μL of rat blood were collected via the jugular vein cannula into a heparinized centrifuge tube at 0.17, 0.33, 0.5, 1, 2, 4, 6, 8, 12, 24-hour post drug administration for respective group. Rats were allowed for free access to food 12 h after drug administrations. All the rats were sacrificed 24-hour post dosing followed by cardiac perfusion with 200-mL saline to collect major organs including spleen, liver, lung, kidney and brain for further analyses. For the digestion of tissues, a modified protocol from US EPA 3050B (USEPA, 1996) was used. Briefly, approximate 0.2˜0.3 g of the respective rat organ samples was placed in 15 ml polypropylene tubes and digested with 1 mL of 69% HNO3 at 65° C. for 16 h, while 100 μL of rat blood was digested with equal volume of 69% HNO3 at 65° C. for 16 h. After being cooled down to room temperature, the samples were diluted to 1% nitric acid to the final volume of 3 mL for further use. To eliminate matrix effect, blood and organs were also collected from untreated rats and digested under identical condition serving as blank control. Standard solutions were prepared by diluting multielement calibration standard of bismuth in the respective blank control of organ and blood, respectively. The bismuth content in each organ or blood sample was then measured by ICP-MS and calculated according to the standard curve in respective blank control. Pharmacokinetic parameters including the peak concentration (Cmax), the area under the concentration-time curve (AUC), the time reaching Cmax (Tmax) were determined through noncompartmental analysis with Phoenix WinNonlin version 6.4 (Pharsight Corporation, Mountain View, Calif., USA).

[5] = test system: VeroE6 cells; test: Cell viability assay (CellTiterGlo), VeroE6; assay type: cell-based, African green monkey; conditions: 48 hrs incubation; concentration based on metal content; read-out: CC50 VeroE6
Method: (§1) The CellTiterGlo® luminescent assay (Promega Corporation, Madison, Wis., USA) was performed to detect the cytotoxicity of the selected compounds as previously described^39. Briefly, VeroE6 cells (4×10^4 cells per well) and Caco2 cells (4×10^4 cells per well) were incubated with different concentrations of the individual compound in 96-well plates for 48 hrs, followed by the addition of the substrate and measurement of luminance 10 min later. Ridaura and Au(PEt3)Cl were dissolved in DMSO, and the final percentage of DMSO was kept at 1% in culture medium.

[6] = test system: SARS-CoV-2; assay type: cell-based; conditions: read-out: EC50 VeroE6
[7] = test system: SARS-CoV-2; assay type: cell-based
[8] = test system: SARS-CoV-2; test: Golden Syrian hamster model, oral treatment (NAC studies); assay type: in vivo; conditions: hamster, in vivo
[9] = test system: SARS-CoV-2; conditions: Caco-2
[10] = test system: Caco2 cells; test: Cell viability assay (CellTiterGlo), Caco2; assay type: cell-based, human; conditions: 48 hrs incubation; concentration based on metal content; read-out: CC50 Caco2
Method: as §1

[11] = test system: SARS-CoV-2; assay type: cell-based; remark: listed apart in the source
[12] = Ex vivo everted gut sac model; assay type: in vitro ADME, rat
Method: Ex vivo everted gut sac model was performed according to a modified method (10, 11). For the preparation of everted gut sac, small intestines were rapidly isolated from rats right after their sacrificing followed by being washed several times with 0.9% saline. Duodenum was segmented of the intestine (˜4 cm) in oxygenated medium [Krebs-Henseleit solution (pH 7.4, 1.25 mM NaHCO3, pH 7.4, 5.9 mM NaCl, 23.5 μM KCl, 60 μM MgSO4, 62.5 μM CaCl2, 60 μM KH2PO4, 550 μM glucose)], gently everted, washed, slid onto a glass rod and fastened with braided silk. Duodenum was clamped at one end and filled with an aliquot of 1 mL fresh oxygenated medium, and subsequently sealed with a second clamp, resulting an everted gut sac with approximately 3 cm in length using braided silk sutures.
The everted gut sacs (n=3 per group) were dialyzed in oxygenated medium supplemented with CBS (200 μM), CBS (200 μM)+1NAC (200 μM), CBS (200 μM)+3NAC (600 μM), CBS (200 μM)+10NAC (2 mM), respectively, at 37° C. Aliquots of 50 μL samples were withdrawn from the gut sacs at different time intervals (15, 30, 45, 60 min) and equal volume of oxygenated medium was supplemented in gut sacs immediately. The length and width of each intestinal segment was measured after the final sample was taken. Bismuth content transported into the gut sacs was measured by ICP-MS as mentioned above.

[13] = oral, CBS 150 mg/kg, NAC 610 mg/kg, bismuth
[14] = oral, CBS 150 mg/kg, NAC 610 mg/kg, bismuth, listed as CBS

## Colloidal Bismuth Subcitrate [De-Nol]
[1]; pH 1.2, after 1 hour, without NAC
  bismuth found in the supernatant: less than 10%
[1]; pH 1.2, in the presence of 3 mol eq. NAC
  bismuth remaining in the supernatant: approximately 100%
[1]; pH 1.2, in the presence of 10 mol eq. NAC
  bismuth remaining in the supernatant: approximately 100%
[1]; pH 9.2
  hydrolysis at pH 9.2 in the presence of NAC: prevent hydrolysis
[2]
  bismuth intestinal permeation within 60 min: moderately elevated
[3]; gastric juice
  optimum pH for precipitation: 3.5
[3]; water
  solubility: soluble in water
[4]; 24 hours after oral dose
  bismuth accumulation in kidney: 6839.76 ng per tissue
  bismuth accumulation in lung: 552.15 ng per tissue
[4]; at around 0.5 h, single oral dose CBS 150 mg/kg
  first peak value of blood bismuth level: 277.69 µg/L
[4]; [13]
  AUC0→24 h (±SD): 2324.20 (±759.76) h · μg/L
  Cmax (±SD): 447.06 µg/L
[4]; [14]
  AUC0→12 h (±SD): 1316 h · μg/L and 1316.94 (±474.00) h · μg/L
  Tmax (±SD): 4 h and 2.53(±2.01) h
[5]
  CC50: 3.254 ± 0.021 mM
[6]
  EC50: 4.6 ± 0.4 µM
[7]
  effect on virus replication, drug maintained after virus entry (post-entry): functioned at post-entry stages
[8]
  adverse clinical signs and symptoms: mildly mitigated
  pulmonary viral load compared with vehicle group: No statistically significant difference
[8]; po
  change in lung IL-6 level versus vehicle group: lowered but statistically non-significant change
[9]
  maximal viral load reduction in Caco2 cell culture supernatant: ~4 logs
  maximal viral load reduction in the Caco2 cell lysate: ~3 logs
[10]
  CC50: 3.74 ± 0.125 mM
[11]
  viral NP antigen-positive cells: 37.25%
PBS iso-pH 1.2, in the presence of 10 mol eq. NAC
  cumulative permeated bismuth: 24.91 ng/cm2
PBS iso-pH 1.2, without NAC
  cumulative permeated bismuth: 16.95 ng/cm2
[12]; CBS 200 μM with 1 mol eq. NAC
  cumulative bismuth permeated within 60 min: 30.21 ng/cm2
[12]; CBS 200 μM with 3 mol eq. NAC
  cumulative bismuth permeated within 60 min: 64.98 ng/cm2
[12]; CBS 200 μM with 10 mol eq. NAC
  cumulative bismuth permeated within 60 min: 98.61 ng/cm2
[12]; CBS 200 μM, without NAC
  cumulative bismuth permeated within 60 min: 14.68 ng/cm2
